Results: article PMC10614163 (ACS nano, 2023)

Assays:
M^pro = M^pro (Severe acute respiratory syndrome coronavirus 2, UniProt P0DTD1); test: M^pro-mediated dye release from coacervates; assay type: biochemical, SARS-CoV-2; details: (R5R5, D10) coacervates, 100 μM dye
[1] = for partitioning / effect on coacervates, in words: confocal microscopy, (R5R5, D10) coacervates

Structure (SMILES) | Release efficiency, RE%, by M^pro (M^pro) | Encapsulation efficiency, EE% [1] | partitioning / effect on coacervates, in words [1]
CN(C)c1ccc2nc3ccc(N)cc3[s+]c2c1.[Cl-] [Azure A, azure A] | 95 ± 1% | 50 ± 1% | 
CNc1ccc2nc3ccc(N)cc3[s+]c2c1 [Azure C, azure C] | 98 ± 1% | 65 ± 2% | 
O=C1OC2(c3ccc(O)cc3Oc3cc(O)ccc32)c2ccccc21 [Fluoresceine, fluoresceine] | 73 ± 7% |  | 
CC1(C)C(/C=C/C=C/C=C/C=C2\N(CCCCS(=O)(=O)[O-])c3ccc4ccccc4c3C2(C)C)=[N+](CCCCS(=O)(=O)[O-])c2ccc3ccccc3c21.[Na+] [ICG dye] |  |  | rapidly cause transformation of coacervates into solid aggregates
Cc1cc2nc3ccc(N(C)C)cc3nc2cc1N.Cl [Neutral red, neutral red] | 99 ± 1% | 93 ± 1% | 
CC/N=c1\cc2oc3cc(NCC)c(C)cc3c(-c3ccccc3C(=O)OCC)c-2cc1C [Rhodamine 6G, rhodamine 6G] | 98 ± 1% | 64 ± 4% | 
CCN(CC)c1ccc2c(-c3ccccc3C(=O)O)c3ccc(=[N+](CC)CC)cc-3oc2c1 [Rhodamine B, rhodamine B] | 96 ± 2% | 56 ± 1% | 
COc1cccc2c1C(=O)c1c(O)c3c(c(O)c1C2=O)C[C@@](O)(C(=O)CO)C[C@@H]3O[C@H]1C[C@H](N)[C@H](O)[C@H](C)O1 [doxorubicin] |  |  | rapidly cause transformation of coacervates into solid aggregates
